Results from patent US6626982B1, “Compound storage” (AstraZeneca AB, priority 1998, dated 2003).
Where “and” joins values, the source holds several entries; their conditions need not be identical. Identical values can stand only once.

What was measured:
[1] = Adsorption onto Florisil and desorption into DMSO, quantified by RP-HPLC against a 10 mM control solution; format: physicochemical; conditions: for Conc. (mM) of Compound in DMSO after desorption from Florisil / Conc. (mM) of Z-Trp-NH2 in DMSO after desorption from Florisil: control 10.00; for Conc. (mM) of Z-Trp-NH2 in DMSO after desorption from Florisil: nominal conc. 10 mM
Description: 1. 16.9 mg (50 μmol) of Z-Trp-NH2 in DMSO (0.5-5 ml) added to carrier (100 mg, 225 mg and 475 mg).
3. Evaporate off DMSO using centrifugal evaporator (70°/1 hr).
4. Mix resulting solid with spatula to ensure distribution as even as possible.
5. Weigh duplicate samples (to contain nominal 10 μmol Z-Trp-NH2) into vials.
6. Add DMSO to achieve 10^−2M conc. (nominal).
7. Dilute for HPLC analysis and compare with 10^−2M control solution of Z-Trp-NH2 similarly diluted.
Z-Trp-NH2 (169 mg) was dissolved in DMSO (50 ml) to give a 10 mM solution. Aliquots of the solution (5 ml, 50 μmol) were added to a 100 mg and a 225 mg sample of Florisil™ in 2-dram glass vials. The samples were vortexed for approximately one minute and the DMSO removed in vacuo by evaporation at 70° for 1 h in a centrifugal evaporator (GeneVac Atlas HT4™). After evaporation the samples were removed and checked visually. In each case dry solids were obtained in the form of free flowing powders virtually indistinguishable from the original Florisil™. The nominal loadings of the adsorbed samples were calculated as 207 and 427 μmol/g of Z-Trp-NH2.
Duplicate amounts (11.7 and 24.2 mg respectively) of the 427 and 207 μmol/g Z-Trp-NH2/Florisil™ samples were weighed into glass vials. DMSO (0.5 ml) was added to each vial and the vials were agitated gently for 15 min to give a nominal concentration of 10 mM of Z-Trp-NH2. Aliquots from each vial were diluted 100-fold with CH3CN and analysed by RP-HPLC monitoring by UV at […]. The peak areas obtained for the desorbed Z-Trp-NH2 DMSO solutions were compared with those obtained using a 10 mM control soln of Z-Trp-NH2 in DMSO similarly diluted.
Using a procedure analogous to that used for Z-Trp-NH2 the following results were obtained (Table 4 and FIG. 3)

[2] = Stability of Fmoc-Arg in DMSO and when adsorbed onto Florisil (HPLC); format: physicochemical
[3] = ratio of compound to Florisil 200.0 μmol/g
[4] = ratio of compound to Florisil 200.1 μmol/g
[5] = ratio of compound to Florisil 397.5 μmol/g
[6] = ratio of compound to Florisil 400.6 μmol/g

Compound | Conc. (mM) of Compound in DMSO after desorption from Florisil [1, 3] [mM] | Conc. (mM) of Compound in DMSO after desorption from Florisil [1, 4] [mM] | Conc. (mM) of Compound in DMSO after desorption from Florisil [1, 5] [mM] | Conc. (mM) of Compound in DMSO after desorption from Florisil [1, 6] [mM] | Overall adsorption/desorption result with Florisil ([1]; comparable to those obtained with Z-Trp-NH2) | Decomposition in DMSO ([2]; 10^-2 M in DMSO, after 24 hours at ambient temperature) | Stability when adsorbed onto Florisil ([2]; adsorbed onto Florisil, some decomposition during adsorption/desorption when DMSO is present) | Detection by HPLC after centrifugal evaporation and dissolution into DMSO ([2]; control experiment, no Florisil added) | Conc. (mM) of Z-Trp-NH2 in DMSO after desorption from Florisil ([1]; ratio of Z-Trp-NH2 to Florisil 200 μmol/g) | Conc. (mM) of Z-Trp-NH2 in DMSO after desorption from Florisil ([1]; ratio of Z-Trp-NH2 to Florisil 400 μmol/g)
Boc-Pyridylalanine [Boc-Pal] | 9.75 | 14.20 | 11.06 | 10.63 | – | – | – | – | – | –
N=C(N)NCCC[C@H](NC(=O)OCC1c2ccccc2-c2ccccc21)C(=O)O [Fmoc-Arg, Fmoc-Arginine] | 7.70 | 7.65 | 5.11 | 5.53 | apparent low release | decomposes completely | stable | not possible to detect any Fmoc-Arg | – | –
Boc-Naphthylalanine [Boc-Nal] | 9.10 | 9.06 | 9.64 | 9.64 | – | – | – | – | – | –

More lines, now with the values ahead:

Conc. (mM) of Compound in DMSO after desorption from Florisil [1, 3] [mM] | Conc. (mM) of Compound in DMSO after desorption from Florisil [1, 4] [mM] | Conc. (mM) of Compound in DMSO after desorption from Florisil [1, 5] [mM] | Conc. (mM) of Compound in DMSO after desorption from Florisil [1, 6] [mM] | Overall adsorption/desorption result with Florisil ([1]; comparable to those obtained with Z-Trp-NH2) | Decomposition in DMSO ([2]; 10^-2 M in DMSO, after 24 hours at ambient temperature) | Stability when adsorbed onto Florisil ([2]; adsorbed onto Florisil, some decomposition during adsorption/desorption when DMSO is present) | Detection by HPLC after centrifugal evaporation and dissolution into DMSO ([2]; control experiment, no Florisil added) | Conc. (mM) of Z-Trp-NH2 in DMSO after desorption from Florisil ([1]; ratio of Z-Trp-NH2 to Florisil 200 μmol/g) | Conc. (mM) of Z-Trp-NH2 in DMSO after desorption from Florisil ([1]; ratio of Z-Trp-NH2 to Florisil 400 μmol/g) | Compound
10.04 | 10.31 | 11.93 | 10.51 | – | – | – | – | – | – | Cl.NC(=O)[C@@H](N)Cc1c[nH]c2ccccc12 [Trp-NH2.HCl, Tryptophan amide hydrochloride]
– | – | – | – | – | – | – | – | 9.21 mM and 9.79 mM | 10.26 mM and 10.09 mM | NC(=O)[C@H](Cc1c[nH]c2ccccc12)NC(=O)OCc1ccccc1 [Z-Trp-NH2]
